Laboratory results reported in ChEMBL document CHEMBL3727346, “6-(pyridinyl)-4-pyrimidone derivates as tau protein kinase 1 inhibitors” (2011).
Active and inactive are the calls of the source. How the calls were made is not given here.

target: Glycogen synthase kinase-3 beta splice variant X1 (Bos taurus) (UniProt A0A059UE90); test: Inhibition of bovine cerebral TPK1 assessed as reduction in P-GS1 phosphorylation using [32gammaP]ATP incubated for 2 hrs by liquid scintillation counting method

inhibition, active:
Cn1c(N2CCO[C@@H](c3ccc(Nc4cccnc4)cc3)C2)nc(-c2ccncc2F)cc1=O, CSc1ccc(-c2ccc([C@H]3CN(c4nc(-c5ccncc5F)cc(=O)n4C)CCN3)cc2)cc1, Cn1c(N2CCO[C@@H](c3ccccc3)C2)nc(-c2ccncc2F)cc1=O, Cn1c(N2CCO[C@@H](c3ccc(-c4nnco4)cc3)C2)nc(-c2ccncc2F)cc1=O, Cn1c(N2CCO[C@@H](c3ccc(NC(=O)c4ccccc4)cc3)C2)nc(-c2ccncc2F)cc1=O, Cn1c(N2CCO[C@@H](c3ccc(NC4C5CC6CC(C5)CC4C6)cc3)C2)nc(-c2ccncc2F)cc1=O (some centres undefined), Cn1c(N2CCO[C@@H](c3ccc(C(=O)NC4CCCCC4)cc3)C2)nc(-c2ccncc2F)cc1=O, Cn1c(N2CCO[C@@H](c3ccc(F)cc3)C2)nc(-c2ccncc2F)c(F)c1=O, Cn1c(N2CCN[C@@H](c3ccc(N4CCCC4)cc3)C2)nc(-c2ccncc2F)cc1=O, COc1ccc(C(C)(C)O)cc1[C@H]1CN(c2nc(-c3ccncc3F)cc(=O)n2C)CCO1, Cn1c(N2CCO[C@@H](c3ccc(N(C(=O)c4ccccc4)C4CCCCC4)cc3)C2)nc(-c2ccncc2F)cc1=O, Cn1c(N2CCO[C@@H](c3ccc(OCCN4CCNCC4)cc3)C2)nc(-c2ccncc2F)cc1=O, CN(C)c1ccc([C@H]2CN(c3nc(-c4ccncc4F)cc(=O)n3C)CCN2)cc1, CN1CCN(c2ccc([C@H]3CN(c4nc(-c5ccncc5F)cc(=O)n4C)CCN3)cc2)CC1, Cn1c(N2CCO[C@@H](c3ccc(N4CCC4)cc3)C2)nc(-c2ccncc2F)cc1=O, CN(C)[C@H]1CCN(c2ccc([C@H]3CN(c4nc(-c5ccncc5F)cc(=O)n4C)CCO3)cc2)C1, CC(=O)N(c1ccc([C@H]2CN(c3nc(-c4ccncc4F)cc(=O)n3C)CCO2)cc1)C(C)C, CNC(=S)Nc1ccc([C@H]2CN(c3nc(-c4ccncc4F)cc(=O)n3C)CCO2)cc1, Cn1c(N2CCN[C@@H](c3ccc(N4CC[C@H](N5CCCC5)C4)cc3)C2)nc(-c2ccncc2F)cc1=O, COc1cc(Cl)ccc1[C@H]1CN(c2nc(-c3ccncc3F)cc(=O)n2C)CCO1, COc1ccc([C@H]2CN(c3nc(-c4ccncc4F)cc(=O)n3C)CCO2)cc1, CSc1ccc([C@H]2CN(c3nc(-c4ccncc4F)cc(=O)n3C)CCO2)cc1, Cn1c(N2CCO[C@@H](c3ccc(N(C4CCCCC4)S(C)(=O)=O)cc3)C2)nc(-c2ccncc2F)cc1=O, Cn1c(N2CCO[C@@H](c3ccc(N4CCC(N5CCCCC5)CC4)cc3)C2)nc(-c2ccncc2F)cc1=O, CCN(CC)C(=O)Nc1ccc([C@H]2CN(c3nc(-c4ccncc4F)cc(=O)n3C)CCO2)cc1, CN(C)C(=O)c1ccc([C@H]2CN(c3nc(-c4ccncc4F)cc(=O)n3C)CCO2)cc1, COc1ccc(N)cc1[C@H]1CN(c2nc(-c3ccncc3F)cc(=O)n2C)CCO1, Cn1c(N2CCO[C@@H](c3ccc(NS(=O)(=O)c4ccccc4)cc3)C2)nc(-c2ccncc2F)cc1=O, CC(C)Nc1ccc([C@H]2CN(c3nc(-c4ccncc4F)cc(=O)n3C)CCO2)cc1, Cn1c(N2CCO[C@@H](c3ccc(NC(=O)C(C)(C)O)cc3)C2)nc(-c2ccncc2F)cc1=O, Cn1c(N2CCO[C@@H](c3ccc(OC4CCCCC4)cc3)C2)nc(-c2ccncc2F)cc1=O, Cn1c(N2CCO[C@@H](c3ccc(OCCCN4CCOCC4)cc3)C2)nc(-c2ccncc2F)cc1=O, Cn1c(N2CCOC(c3ccccc3OCCCN)C2)nc(-c2ccncc2F)cc1=O (centres undefined), CC(C)Oc1ccc([C@H]2CN(c3nc(-c4ccncc4F)cc(=O)n3C)CCO2)cc1, Cn1c(N2CCO[C@@H](c3ccc(CO)cc3)C2)nc(-c2ccncc2F)cc1=O, Cn1c(N2CCO[C@@H](c3ccc(F)cc3)C2)nc(-c2ccncc2F)cc1=O, CCN(c1ccc([C@H]2CN(c3nc(-c4ccncc4F)cc(=O)n3C)CCO2)cc1)C1CCCCC1, Cn1c(N2CCO[C@@H](c3ccc(N4CCc5ccccc54)cc3)C2)nc(-c2ccncc2F)cc1=O, CN(C)[C@@H]1CCN(c2ccc([C@H]3CN(c4nc(-c5ccncc5F)cc(=O)n4C)CCO3)cc2)C1, Cn1c(N2CCO[C@@H](c3ccc(N4CCCC4)cc3)C2)nc(-c2ccncc2F)cc1=O, Cn1c(N2CCN[C@@H](c3ccc(N4CCC(O)CC4)cc3)C2)nc(-c2ccncc2F)cc1=O, Cn1c(N2CCOC(c3ccc4c(c3)C(C)(C)CC(=O)N4)C2)nc(-c2ccncc2F)cc1=O (racemic), Cn1c(N2CCO[C@@H](c3ccc([N+](=O)[O-])cc3)C2)nc(-c2ccncc2F)cc1=O, Cn1c(N2CCOC(c3ccc4c(c3)NC(=O)CO4)C2)nc(-c2ccncc2F)cc1=O (racemic), Cn1c(N2CCN[C@@H](c3ccc(-c4ccc(Cl)c(Cl)c4)cc3)C2)nc(-c2ccncc2F)cc1=O, C[C@@H]1CN(c2ccc([C@H]3CN(c4nc(-c5ccncc5F)cc(=O)n4C)CCO3)cc2)C[C@H](C)N1, Cn1c(N2CCO[C@@H](c3ccc(N4CC[C@@H](N5CCCC5)C4)cc3)C2)nc(-c2ccncc2F)cc1=O, Cn1c(N2CCO[C@@H](c3ccc(F)c(N)c3)C2)nc(-c2ccncc2F)cc1=O, Cn1c(N2CCN[C@@H](c3ccc(N4CCC(N5CCCCC5)CC4)cc3)C2)nc(-c2ccncc2F)cc1=O, CC(=O)N1CCN(CCOc2ccc([C@H]3CN(c4nc(-c5ccncc5F)cc(=O)n4C)CCO3)cc2)CC1, Cc1nnc(-c2ccc([C@H]3CN(c4nc(-c5ccncc5F)cc(=O)n4C)CCO3)cc2)o1, Cn1c(N2CCO[C@@H](c3ccc(NS(C)(=O)=O)cc3)C2)nc(-c2ccncc2F)cc1=O, CCc1nc(-c2ccc([C@H]3CN(c4nc(-c5ccncc5F)cc(=O)n4C)CCN3)cc2)no1, CCOC(=O)Nc1ccc([C@H]2CN(c3nc(-c4ccncc4F)cc(=O)n3C)CCO2)cc1
